Experimental data from publication PMC2818328 (Bioorganic & medicinal chemistry letters, 2009).
pKi: −log10 of the molar value.

What was measured:
[1] = molecular target: GCPII (Homo sapiens, UniProt Q04609); test: fluorescence-based NAALADase assay, in vitro GCPII inhibitory activity; conditions: relative to 32a
[2] = molecular target: cloned human GCPII; conditions: cited from earlier work
[3] = tested on: inflammatory and neuropathic pain models; conditions: cited from earlier work

GCPII, sequence (Q04609 whole entry): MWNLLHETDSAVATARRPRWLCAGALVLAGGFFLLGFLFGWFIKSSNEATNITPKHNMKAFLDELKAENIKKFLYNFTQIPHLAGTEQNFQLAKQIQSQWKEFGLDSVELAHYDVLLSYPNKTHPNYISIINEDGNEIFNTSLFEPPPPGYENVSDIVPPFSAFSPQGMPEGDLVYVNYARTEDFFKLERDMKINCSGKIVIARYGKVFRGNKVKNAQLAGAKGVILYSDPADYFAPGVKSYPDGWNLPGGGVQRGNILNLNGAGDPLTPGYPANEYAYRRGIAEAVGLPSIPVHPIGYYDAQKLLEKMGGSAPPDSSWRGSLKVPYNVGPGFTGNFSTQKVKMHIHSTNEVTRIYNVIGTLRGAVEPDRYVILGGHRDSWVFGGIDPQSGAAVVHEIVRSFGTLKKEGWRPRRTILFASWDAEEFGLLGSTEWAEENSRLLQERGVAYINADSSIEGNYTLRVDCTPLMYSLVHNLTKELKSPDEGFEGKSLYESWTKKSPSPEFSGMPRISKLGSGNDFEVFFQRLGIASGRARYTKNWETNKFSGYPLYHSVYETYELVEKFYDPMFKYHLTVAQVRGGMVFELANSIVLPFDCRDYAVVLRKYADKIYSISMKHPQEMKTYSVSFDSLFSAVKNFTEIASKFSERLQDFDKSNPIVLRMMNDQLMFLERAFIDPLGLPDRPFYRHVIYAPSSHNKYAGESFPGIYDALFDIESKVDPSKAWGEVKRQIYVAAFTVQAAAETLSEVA

SMILES	fold stronger binding affinity for GCPII compared to 32a [1] [fold]	pKi [2]	penetration of the blood-brain barrier [3]	analgesic activity ([3]; high doses (50–100 mg/kg) needed)
O=C(N[C@@H](CCCCNC(=O)c1ccc(I)cc1)C(=O)O)NC1(C(=O)O)CC1 [32c]	4	–	–	–
C=CC[C@H](NC(=O)N[C@@H](CCCCNC(=O)c1ccc(I)cc1)C(=O)O)C(=O)O [32d]	120	–	–	–
CC(C)C[C@H](NC(=O)N[C@@H](CCC(=O)O)C(=O)O)C(=O)O [ZJ-43, (S)-2-(3-((S)-1-carboxy-3-methylbutyl)ureido)pentanedioic acid]	–	9.10	low penetration	demonstrated analgesic activity
